Patent US12594317B2 (priority 2020, dated 2026)

Test system: HEK293 cell line stably expressing ACE2 receptor infected by COVID-19 pseudovirus
Assay type: cell-based, human
Conditions: positive control group, 10 μL of 100 μM solution per well, 48 h

CCN(CC)CCCC(C)Nc1ccnc2cc(Cl)ccc12 (stereo not shown) [chloroquine phosphate]
RLU/RLUc value (ratio of fluorescence value of test group to average fluorescence intensity of negative control group): 0.05±0.01
